Experiment [1] has as its target angiotensin-converting enzyme (ACE) (Homo sapiens, UniProt P12821). The experiment is described as follows: ACE activity of HUVECs (hippuric acid release from HHL) after 20-min incubation with AGS-IV. The class given is cell-based.
A further experiment concerns T1, calcineurin (CN).
T1 construct: gene Ppp3ca; with calcineurin B (CnB, regulatory subunit)
The experiment is described as follows: calcineurin activity kit (RII phosphopeptide, malachite green) in rat VSMCs after 24-h pretreatment. The format is cell-based.

Chain of angiotensin-converting enzyme (ACE) (P12821 30-1306): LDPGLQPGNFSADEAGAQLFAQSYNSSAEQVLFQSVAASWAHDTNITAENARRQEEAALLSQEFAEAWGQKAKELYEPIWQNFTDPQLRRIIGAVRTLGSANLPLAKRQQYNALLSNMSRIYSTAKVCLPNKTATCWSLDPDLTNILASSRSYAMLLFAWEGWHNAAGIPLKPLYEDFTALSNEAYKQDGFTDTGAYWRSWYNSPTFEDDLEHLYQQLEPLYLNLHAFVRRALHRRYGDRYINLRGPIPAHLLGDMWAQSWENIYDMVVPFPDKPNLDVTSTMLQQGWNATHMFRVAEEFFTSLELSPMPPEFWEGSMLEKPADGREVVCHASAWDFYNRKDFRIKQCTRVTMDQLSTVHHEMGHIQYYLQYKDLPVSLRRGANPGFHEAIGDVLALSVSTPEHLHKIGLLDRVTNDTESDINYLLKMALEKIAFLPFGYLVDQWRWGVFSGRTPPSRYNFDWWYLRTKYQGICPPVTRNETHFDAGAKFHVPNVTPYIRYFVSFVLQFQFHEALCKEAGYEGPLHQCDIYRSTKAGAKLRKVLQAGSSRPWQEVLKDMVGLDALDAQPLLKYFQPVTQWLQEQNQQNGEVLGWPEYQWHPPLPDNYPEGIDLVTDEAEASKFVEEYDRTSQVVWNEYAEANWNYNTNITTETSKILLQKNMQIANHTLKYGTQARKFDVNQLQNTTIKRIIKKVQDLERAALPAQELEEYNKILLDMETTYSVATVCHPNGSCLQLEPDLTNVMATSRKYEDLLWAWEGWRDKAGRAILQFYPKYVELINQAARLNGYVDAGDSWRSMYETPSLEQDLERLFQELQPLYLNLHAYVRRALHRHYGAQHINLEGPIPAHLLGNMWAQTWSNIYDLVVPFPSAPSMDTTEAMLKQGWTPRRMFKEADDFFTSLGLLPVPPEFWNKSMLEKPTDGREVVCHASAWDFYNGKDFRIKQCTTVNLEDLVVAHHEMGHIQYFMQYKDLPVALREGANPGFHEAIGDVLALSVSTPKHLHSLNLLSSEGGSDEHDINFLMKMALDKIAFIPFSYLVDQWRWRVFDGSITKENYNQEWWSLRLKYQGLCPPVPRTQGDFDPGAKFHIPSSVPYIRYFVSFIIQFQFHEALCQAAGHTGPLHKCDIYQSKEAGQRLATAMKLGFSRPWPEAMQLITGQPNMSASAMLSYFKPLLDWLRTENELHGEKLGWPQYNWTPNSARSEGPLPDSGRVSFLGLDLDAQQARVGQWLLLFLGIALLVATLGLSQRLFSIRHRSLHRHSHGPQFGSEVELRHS

For orientation: IC50 means the concentration at which inhibition is half-maximal. As for `CC(C)(O)[C@@H]1CC[C@](C)([C@H]2[C@@H](O)C[C@@]3(C)[C@@H]4C[C@H](O[C@@H]5O[C@H](CO)[C@@H](O)[C@H](O)[C@H]5O)[C@H]5C(C)(C)[C@@H](O[C@@H]6OC[C@@H](O)[C@H](O)[C@H]6O)CC[C@@]56C[C@@]46CC[C@]23C)O1` [AGS-IV, Astragaloside IV], the IC50 stood at 268 nM in experiment [1] and 403 nM with calcineurin (CN).

For the origin of these results see paper PMC3444501, “Therapeutic Effects of Astragaloside IV on Myocardial Injuries: Multi-Target Identification and Network Analysis” (PLoS ONE, 2012).
